Numbers after ± are expanded uncertainties.
How the values were obtained:
[1] = refractive index (Na D-line) (dimensionless); conditions: 293.15 K; 101.33 kPa; Liquid; Standard Abbe refractometry
[2] = 293.15 K; 101.33 kPa; Liquid

| refractive index [1] | mass density [2] [kg/m3] | SMILES |
| --- | --- | --- |
| 1.4639 ± 0.0006 | 962.3 ± 0.6 | OC1CCCCC1 [cyclohexanol] |
| 1.4422 ± 0.0006 | 968.2 ± 0.5 | CC(=O)OC1CCCCC1 [cyclohexyl ethanoate] |
| 1.4026 ± 0.0006 | 875 ± 0.8 | CCCCCOC(C)=O [pentyl ethanoate] |
| 1.385 ± 0.0006 | 803.5 ± 1 | CCCO [propan-1-ol] |
| 1.3326 ± 0.0006 | 998.4 ± 0.5 | O [water] |

Source: the NIST ThermoML archive (doi:10.1016/j.fluid.2007.01.021)
